Measured values taken from ChEMBL document CHEMBL1122090, “Species- or isozyme-specific enzyme inhibitors. 7. Selective effects in inhibitions of rat adenylate kinase isozymes by adenosine 5'-phosphate derivatives” (J Med Chem, 1982).

Tests used:
[1] = target: T1, Adenylate kinase isoenzyme 1 (Rattus norvegicus) (UniProt P39069); experiment: Relative Vmax value to Adenylate kinase M isoenzyme (adenylate kinase 1, AK1)
T1 sequence (whole entry): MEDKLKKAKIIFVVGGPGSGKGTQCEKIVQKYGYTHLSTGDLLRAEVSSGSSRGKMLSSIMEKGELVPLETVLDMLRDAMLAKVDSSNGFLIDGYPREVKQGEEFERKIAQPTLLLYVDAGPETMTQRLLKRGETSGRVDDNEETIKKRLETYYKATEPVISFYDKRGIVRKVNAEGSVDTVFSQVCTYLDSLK

[2] = target: Adenylate kinase 2, mitochondrial (Rattus norvegicus) (UniProt P29410); experiment: Relative Vmax value to rat adenylate kinase II.
[3] = target: GTP:AMP phosphotransferase AK3, mitochondrial (Rattus norvegicus) (UniProt P29411); experiment: Relative Vmax value to rat adenylate kinase III.
Chain of GTP:AMP phosphotransferase AK3, mitochondrial (Rattus norvegicus) (P29411 whole entry): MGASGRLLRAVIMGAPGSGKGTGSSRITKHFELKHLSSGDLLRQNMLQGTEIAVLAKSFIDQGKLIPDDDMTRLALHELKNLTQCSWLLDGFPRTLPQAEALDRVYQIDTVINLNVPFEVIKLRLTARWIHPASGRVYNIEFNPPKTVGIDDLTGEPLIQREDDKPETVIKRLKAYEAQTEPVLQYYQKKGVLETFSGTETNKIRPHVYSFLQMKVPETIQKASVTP

[4] = Relative inhibition index was the ratio between AK-M and AK II; type: functional
[5] = Relative inhibition index was the ratio between AK-M and AK III; type: functional
[6] = target: Adenylate kinase 2, mitochondrial (Rattus norvegicus) (UniProt P29410); experiment: Inhibition index was the ratio between KM of AMP and Ki of AK II; type: functional
[7] = target: GTP:AMP phosphotransferase AK3, mitochondrial (Rattus norvegicus) (UniProt P29411); experiment: Inhibition index was the ratio between KM of AMP and Ki of AK III; type: functional
[8] = target: T1, Adenylate kinase isoenzyme 1 (Rattus norvegicus); experiment: Inhibition index was the ratio between KM of AMP and Ki of AK M; type: functional
[9] = target: GTP:AMP phosphotransferase AK3, mitochondrial (Rattus norvegicus) (UniProt P29411); experiment: Inhibitory constant of compound with Rat adenylate kinase IIl at 1.3 mM concentration in the presence of 0.65 mM AMP
[10] = target: T1, Adenylate kinase isoenzyme 1 (Rattus norvegicus); experiment: Inhibitory constant of compound with Rat adenylate kinase M isozyme at 1.3 mM concentration in the presence of 0.65 mM AMP
[11] = test system: CCC[C@H](OP(=O)(O)O)[C@H]1OC(n2cnc3c(N)ncnc32)[C@H](O)[C@@H]1O; experiment: (§1) Concentration of compound for half-maximal velocity to Adenylate kinase II
[12] = test system: CC[C@H](OP(=O)(O)O)[C@H]1OC(n2cnc3c(N)ncnc32)[C@H](O)[C@@H]1O; experiment: as §1
[13] = test system: CNc1nc(N)c2ncn([C@@H]3O[C@H](COP(=O)(O)O)[C@@H](O)[C@H]3O)c2n1; experiment: as §1
[14] = test system: C[C@@H]1[C@H](O)[C@@H](COP(=O)(O)O)O[C@H]1n1cnc2c(N)ncnc21; experiment: as §1
[15] = test system: Nc1nc(Cl)nc2c1ncn2[C@@H]1O[C@H](COP(=O)(O)O)[C@@H](O)[C@H]1O; experiment: as §1
[16] = test system: Nc1nc(N)c2ncn([C@@H]3O[C@H](COP(=O)(O)O)[C@@H](O)[C@H]3O)c2n1; experiment: as §1
[17] = test system: Nc1ncnc2c1ncn2[C@@H]1O[C@H](/C=C/P(=O)(O)O)[C@@H](O)[C@H]1O; experiment: as §1
[18] = test system: Nc1ncnc2c1ncn2[C@@H]1O[C@H](CCP(=O)(O)O)[C@@H](O)[C@H]1O; experiment: as §1
[19] = test system: Nc1ncnc2c1ncn2[C@@H]1O[C@H](COP(=O)(O)O)[C@@H](O)[C@H]1O; experiment: as §1
[20] = test system: C[C@H](OP(=O)(O)O)[C@H]1OC(n2cnc3c(N)ncnc32)[C@H](O)[C@@H]1O; experiment: as §1; type: functional
[21] = target: Adenylate kinase 2, mitochondrial (Rattus norvegicus) (UniProt P29410); experiment: Relative Vmax value to Adenylate kinase II
[22] = target: GTP:AMP phosphotransferase AK3, mitochondrial (Rattus norvegicus) (UniProt P29411); experiment: Relative Vmax value to Adenylate kinase III

## COP(=O)(O)C[C@H]1OC(n2cnc3c(N)ncnc32)[C@H](O)[C@@H]1O (stereo partly specified)
[1]
  Relative Vmax: 0
[2]
  Relative Vmax: 0
[3]
  Relative Vmax: 0

## Nc1nc(N)c2ncn([C@@H]3O[C@H](COP(=O)(O)O)[C@@H](O)[C@H]3O)c2n1
[1]
  Relative Vmax: 7.1
[2]
  Relative Vmax: 18
[3]
  Relative Vmax: 24
[4]
  Relative inhibition index: 3.4
[5]
  Relative inhibition index: 4
[6]
  Inhibition index: 0.05
[7]
  Inhibition index: 0.042
[8]
  Inhibition index: 0.17

## Nc1ncnc2c1ncn2C(CO)OC(CO)COP(=O)(O)O (stereo unspecified)
[1]
  Relative Vmax: 0
[2]
  Relative Vmax: 0
[3]
  Relative Vmax: 0

## Nc1ncnc2c1ncn2[C@@H]1O[C@H](COP(=O)(O)O)[C@@H](O)[C@H]1O
[1]
  Relative Vmax: 100
[2]
  Relative Vmax: 100
[3]
  Relative Vmax: 100

## CNc1ncnc2c1ncn2[C@@H]1O[C@H](COP(=O)(O)O)[C@@H](O)[C@H]1O
[1]
  Relative Vmax: 0
[2]
  Relative Vmax: 0
[9]
  inhibition: 15%
[3]
  Relative Vmax: 0
[10]
  inhibition: 15%

## CNc1nc(N)c2ncn([C@@H]3O[C@H](COP(=O)(O)O)[C@@H](O)[C@H]3O)c2n1
[1]
  Relative Vmax: 0.7
[2]
  Relative Vmax: 9.7
[3]
  Relative Vmax: 10
[4]
  Relative inhibition index: 7.4
[5]
  Relative inhibition index: 9.1
[6]
  Inhibition index: 0.027
[7]
  Inhibition index: 0.022
[8]
  Inhibition index: 0.2

## Nc1ncnc2c1ncn2[C@@H]1O[C@H](CCP(=O)(O)O)[C@@H](O)[C@H]1O
[1]
  Relative Vmax: 2.2
[2]
  Relative Vmax: 11.2
[3]
  Relative Vmax: 21
[4]
  Relative inhibition index: 4.4
[5]
  Relative inhibition index: 3.9
[6]
  Inhibition index: 0.032
[7]
  Inhibition index: 0.036
[8]
  Inhibition index: 0.14

## Nc1ncnc2c1ncn2[C@@H]1O[C@H](COS(=O)(=O)O)[C@@H](O)[C@H]1O
[1]
  Relative Vmax: 0
[2]
  Relative Vmax: 0
[3]
  Relative Vmax: 0
[5]
  Relative inhibition index: 1.1
[7]
  Inhibition index: 0.11
[8]
  Inhibition index: 0.12

## C[C@@H]1[C@H](O)[C@@H](COP(=O)(O)O)O[C@H]1n1cnc2c(N)ncnc21
[1]
  Relative Vmax: 5.6
[2]
  Relative Vmax: 29
[3]
  Relative Vmax: 21
[4]
  Relative inhibition index: 1.2
[5]
  Relative inhibition index: 1.1
[6]
  Inhibition index: 0.088
[7]
  Inhibition index: 0.1
[8]
  Inhibition index: 0.11

## CO[C@@H]1[C@H](O)[C@@H](COP(=O)(O)O)O[C@H]1n1cnc2c(N)ncnc21
[1]
  Relative Vmax: > 0
[2]
  Relative Vmax: > 0
[3]
  Relative Vmax: > 0
[4]
  Relative inhibition index: 6.4
[5]
  Relative inhibition index: 8.2
[6]
  Inhibition index: 0.022
[7]
  Inhibition index: 0.017
[8]
  Inhibition index: 0.14

## CC[C@@H](OP(=O)(O)O)[C@H]1OC(n2cnc3c(N)ncnc32)[C@H](O)[C@@H]1O (stereo partly specified)
[1]
  Relative Vmax: 0
[2]
  Relative Vmax: 0
[3]
  Relative Vmax: 0
[6]
  Inhibition index: 0.015
[7]
  Inhibition index: 0.015

## Adenylate kinase 2, mitochondrial (Rattus norvegicus) (from UniProt P29410)
[11]
  Km: 1100 µM
[12]
  Km: 1400 µM
[13]
  Km: 3000 µM
[14]
  Km: 910 µM
[15]
  Km: 1600 µM
[16]
  Km: 1600 µM
[17]
  Km: 1600 µM
[18]
  Km: 2500 µM
[19]
  Km: 80 µM
[20]
  Km: 1300 µM

## CCC[C@H](OP(=O)(O)O)[C@H]1OC(n2cnc3c(N)ncnc32)[C@H](O)[C@@H]1O (stereo partly specified)
[1]
  Relative Vmax: > 0
[21]
  Relative Vmax: 1.3
[3]
  Relative Vmax: 0.82
[4]
  Relative inhibition index: 5.6
[5]
  Relative inhibition index: 4.3
[6]
  Inhibition index: 0.073
[7]
  Inhibition index: 0.096
[8]
  Inhibition index: 0.41

## C=CC[C@]1(COP(=O)(O)O)OC(n2cnc3c(N)ncnc32)[C@H](O)[C@@H]1O (stereo partly specified)
[1]
  Relative Vmax: > 0
[2]
  Relative Vmax: > 0
[3]
  Relative Vmax: > 0
[4]
  Relative inhibition index: 4.6
[5]
  Relative inhibition index: 8.1
[6]
  Inhibition index: 0.21
[7]
  Inhibition index: 0.12
[8]
  Inhibition index: 0.97

## CC[C@H](OP(=O)(O)O)[C@H]1OC(n2cnc3c(N)ncnc32)[C@H](O)[C@@H]1O (stereo partly specified)
[1]
  Relative Vmax: > 0
[21]
  Relative Vmax: 2.4
[3]
  Relative Vmax: > 0
[4]
  Relative inhibition index: 11.2
[6]
  Inhibition index: 0.057
[8]
  Inhibition index: 0.64

## Nc1nc(Cl)nc2c1ncn2[C@@H]1O[C@H](COP(=O)(O)O)[C@@H](O)[C@H]1O
[1]
  Relative Vmax: 0.13
[2]
  Relative Vmax: 5.8
[3]
  Relative Vmax: 7.5
[4]
  Relative inhibition index: 4.2
[5]
  Relative inhibition index: 4.2
[6]
  Inhibition index: 0.05
[7]
  Inhibition index: 0.05
[8]
  Inhibition index: 0.21

## CN(C)c1nc(N)c2ncn(C3O[C@H](COP(=O)(O)O)[C@@H](O)[C@H]3O)c2n1 (stereo partly specified)
[1]
  Relative Vmax: 0.04
[2]
  Relative Vmax: 0
[3]
  Relative Vmax: 0
[4]
  Relative inhibition index: 5.5
[5]
  Relative inhibition index: 4.5
[6]
  Inhibition index: 0.014
[7]
  Inhibition index: 0.017
[8]
  Inhibition index: 0.077

## CCSc1nc2c(N)ncnc2n1C1O[C@H](COP(=O)(O)O)[C@@H](O)[C@H]1O (stereo partly specified)
[1]
  Relative Vmax: 0
[2]
  Relative Vmax: 0
[3]
  Relative Vmax: 0

## Nc1ncnc2c1nc(Br)n2[C@@H]1O[C@H](COP(=O)(O)O)[C@@H](O)[C@H]1O
[1]
  Relative Vmax: 0
[2]
  Relative Vmax: 0
[3]
  Relative Vmax: 0

## CSc1nc(N)c2ncn([C@@H]3O[C@H](COP(=O)(O)O)[C@@H](O)[C@H]3O)c2n1
[1]
  Relative Vmax: > 0
[2]
  Relative Vmax: > 0
[3]
  Relative Vmax: > 0

## Nc1ncnc2c1ncn2[C@@H]1O[C@H](/C=C/P(=O)(O)O)[C@@H](O)[C@H]1O
[1]
  Relative Vmax: 2.1
[2]
  Relative Vmax: 12
[22]
  Relative Vmax: 13
[4]
  Relative inhibition index: 5.8
[5]
  Relative inhibition index: 5.1
[6]
  Inhibition index: 0.05
[7]
  Inhibition index: 0.057
[8]
  Inhibition index: 0.29

## CCNc1nc(N)c2ncn([C@@H]3O[C@H](COP(=O)(O)O)[C@@H](O)[C@H]3O)c2n1
[1]
  Relative Vmax: 0.4
[3]
  Relative Vmax: 2.7
[5]
  Relative inhibition index: 9.3
[7]
  Inhibition index: 0.015
[8]
  Inhibition index: 0.14

## CC(=O)NCCNc1ncnc2c1ncn2C1O[C@H](COP(=O)(O)O)[C@@H](O)[C@H]1O (stereo partly specified)
[1]
  Relative Vmax: 0
[2]
  Relative Vmax: 0
[3]
  Relative Vmax: 0

## Cn1cnc2c(ncn2[C@@H]2O[C@H](COP(=O)(O)O)[C@@H](O)[C@H]2O)c1=N
[1]
  Relative Vmax: 0
[2]
  Relative Vmax: 0
[3]
  Relative Vmax: 0

## CC1(C)O[C@@H]2[C@H](O1)[C@@H](COP(=O)(O)O)O[C@H]2n1cnc2c(N)ncnc21
[1]
  Relative Vmax: 0
[2]
  Relative Vmax: 0
[3]
  Relative Vmax: 0
[4]
  Relative inhibition index: 6.6
[5]
  Relative inhibition index: 5.7
[6]
  Inhibition index: 0.038
[7]
  Inhibition index: 0.044
[8]
  Inhibition index: 0.25

## C[C@H](OP(=O)(O)O)[C@H]1OC(n2cnc3c(N)ncnc32)[C@H](O)[C@@H]1O (stereo partly specified)
[1]
  Relative Vmax: 1
[2]
  Relative Vmax: 7
[3]
  Relative Vmax: 8
[4]
  Relative inhibition index: 4.7
[5]
  Relative inhibition index: 2.8
[6]
  Inhibition index: 0.062
[7]
  Inhibition index: 0.1
[8]
  Inhibition index: 0.28

## C[C@@H](OP(=O)(O)O)[C@H]1OC(n2cnc3c(N)ncnc32)[C@H](O)[C@@H]1O (stereo partly specified)
[1]
  Relative Vmax: 0
[2]
  Relative Vmax: > 0
[3]
  Relative Vmax: > 0
[6]
  Inhibition index: 0.0082
[7]
  Inhibition index: 0.008

## CC1O[C@@H]2[C@H](O1)[C@@H](COP(=O)(O)O)O[C@H]2n1cnc2c(N)ncnc21 (stereo partly specified)
[1]
  Relative Vmax: 0
[2]
  Relative Vmax: 0
[3]
  Relative Vmax: 0
[4]
  Relative inhibition index: 4.3
[5]
  Relative inhibition index: 4.6
[6]
  Inhibition index: 0.03
[7]
  Inhibition index: 0.028
[8]
  Inhibition index: 0.13

## CCC[C@@H](OP(=O)(O)O)[C@H]1OC(n2cnc3c(N)ncnc32)[C@H](O)[C@@H]1O (stereo partly specified)
[1]
  Relative Vmax: 0
[2]
  Relative Vmax: 0
[3]
  Relative Vmax: 0
[6]
  Inhibition index: 0.025
[7]
  Inhibition index: 0.021

## CCC1O[C@@H]2[C@H](O1)[C@@H](COP(=O)(O)O)O[C@H]2n1cnc2c(N)ncnc21 (stereo partly specified)
[1]
  Relative Vmax: 0
[2]
  Relative Vmax: 0
[3]
  Relative Vmax: 0
[4]
  Relative inhibition index: 3
[5]
  Relative inhibition index: 2.8
[6]
  Inhibition index: 0.03
[7]
  Inhibition index: 0.032
[8]
  Inhibition index: 0.089

## CO[C@H]1[C@@H](O)[C@H](n2cnc3c(N)ncnc32)O[C@@H]1COP(=O)(O)O
[1]
  Relative Vmax: > 0
[2]
  Relative Vmax: > 0
[3]
  Relative Vmax: > 0
[4]
  Relative inhibition index: 4
[5]
  Relative inhibition index: 2.6
[6]
  Inhibition index: 0.085
[7]
  Inhibition index: 0.13
[8]
  Inhibition index: 0.34
